Entries after “also recorded” stand apart in the source; their conditions may differ.
Legend:
TLR2 = details: Pam2Cys adjuvanting moiety; ref [19]; cited from earlier work
Excerpt: Due to the small size of many CTAs (several under 100 amino acids in length), it is possible to produce the whole CTA synthetically via solid‐phase peptide synthesis (SPPS), coupled with native chemical ligation if required. […] An additional benefit of using palmitoyl functionality is the ability of the fatty acid chains to be incorporated into nanoparticles via sel ...

BALB/c mice = assay: In vivo toxicity in healthy BALB/c mice; details: antigen alone / components administered separately
anti‐BAGE4 antibody = assay: Competitive ELISA, antibody recognition of BAGE4 antigen; type: binding, rabbit; details: 11 antigen concentrations between 1000 and 0.98 ng/mL, anti‐BAGE4 antibody SAB4301150 (1:250), 1 h, BAGE4-coated 384‐well plate, PBST with 0.05% Tween 20 as negative control, HRP/TMB, absorbance 450 nm
Protocol: Antibody–antigen complexes were then added to 384‐well plates which were precoated with 10 ng/mL of antigen. The secondary antibody, specific to the primary and conjugated to horseradish peroxidase (HRP) enzyme (produced in rabbit), was added, followed by TMB for colour development.
The antigen was diluted to 100 ng/ml in carbonate-bicarbonate
buffer, then 60 μL of the antigen dilution was pipetted into the wells of Maxisorp 384 well plate.
The plate was diluted as required (23 dilutions were prepared) and incubated at 4 °C under
foil overnight. The coating solution was removed and the plate washed three times by filling
the wells with 200 μL PBST. The solutions or washes were removed by flicking the plate over
a sink, then patting the plate dry with a paper towel.
Remaining protein-binding sites in the coated wells were blocked by adding 40 μL blocking
buffer (3% whey, 0.05% NaN3, 0.1% EDTA in PBS) to each well. The plates were covered
with foil and incubated for 2 h at rt or overnight at 4 °C. Plates were washed three times by
filling the wells with 200 μL PBS.
Incubation with primary and secondary antibody
In an Abgene 96 well plate, 8 dilutions of primary antibody (anti-BAGE4 produced in rabbit;
Sigma Aldrich SAB4301150, and anti-NY-ESO-1 produced in mouse; Sigma Aldrich N2038) […]
The optical density at 450 nm was recorded. […]

IFNγ‐secreting T‐cells = assay: In vivo immunisation, IFNγ ELISpot on splenocytes, BALB/c mice
Protocol: Animal experiments were carried out with ethical approval from University of Nottingham ethical review board and under a Home Office approved project license (PP2706800). Mice were dosed with 10 nmol of material in 50 μL at Days 1, 8 and 15 (n = 3). IFNϒ ELISpot assays on splenocytes were conducted on termination at Day 21. General methods for the ELISpot can be found in the Supporting Information. Preparation of media and buffers and steps performed on Days 1 and 2 post‐termination; the ELISpot assays were performed using a laminar flow cabinet and aseptic techniques to ensure the sterility of media, reagents and plates at stages before development of the ELISpot. Development of the ELISpot on Day 4 posttermination was performed on the laboratory bench.
The response was measured by count of peptide‐specific IFNγ‐secreting T‐cells by ELISpot assay. Since no studies to date have addressed T‐cell responses to BAGE4 in conventional or HLA‐A2 (HHDII/DR1) transgenic mice, conventional mice were initially selected. The H‐2d haplotype (BALB/c) strain was selected for this study as the epitope predictions for peptides that bind to MHC I and II are effective for this strain (IEDB Analysis Resource). Splenocytes from the immunised mice were tested against three predicted epitope peptides from BAGE4_18–39, which should reactivate T‐cell responses in this strain of mice when immunised with BAGE4_18–39 vaccine candidates. Lipopolysaccharide (LPS; 5 μg/mL) was used as the positive control (non‐specific stimulus of the immune system).
In Vivo Evaluation (ELISpot Assay)
Animal experiments were carried out with ethical approval from University of Nottingham ethical review boards and under a Home Office approved project license (PP2706800). HLA-HHDII/DR1 (HLA-A2.1+/+ HLADR1+/+, Pasteur Institute) transgenic mice knocked out for murine MHC-I and II and expressing chimeric HLA-A2 (HHDII) and human HLA-DR1 or Balb/c mice (Charles River) aged 6-12 weeks were used. Mice were vaccinated with 10 ηmol of each immunogen at each timepoint. Doses were delivered subcutaneously (s.c.) in 50 µl volume on days 1, 8 and 15. No anaesthesia was used for injections. Responses were screened on day 21 after euthanasia by cervical dislocation. Preparation of media and buffers and steps performed on days 1 and 2 of the ELISpot assay were performed using a laminar flow cabinet and aseptic techniques to ensure the sterility of media, reagents and plates at stages before development of the ELISpot. Development of the ELISpot on day 4 can be performed on the […]
The following tables summarise the details of the vaccine candidates and vaccination procedure including (dose time points): […]
Table S6. Summary of the injection schedule (including dose concentration and number) for the following vaccine candidates: BAGE418-39 candidate (co-administered with IFA), Cys-BAGE4-MalLNP conjugate, Pam2Cys-SK4-BAGE18-39 (2), and 2-LNP using BALB/c mice. […]
peptide mixed splenocytes
1 with standard 10 nmol SC Day 1,8 & 15 3 Day 21 ELISA on
3 Pam2Cys-SK4- 10 nmol SC Day 1, 8 & 3 Day 1 Experiment
Pam2Cys-SK4- 10 nmol Day 1, 8 & Experiment
Elispot assays were performed using murine IFNγ capture and detection reagents according to the manufacturer’s instructions (Mabtech).
Day 1: Coating of plates with capture antibody
20 μL 35% ethanol was added to each well then discarded. Each plate was then washed 4 times with 200 μL of sterile distilled water per well. […]

CD8+ cells = details: models vaccinated against NY‐ESO‐1; ref [34], [35], [36]; cited from earlier work
Excerpt: (§1) Two CTA epitopes; NY‐ESO‐1_157‐165 and BAGE4_18–39 were employed as the antigenic components in our studies. […] BAGE4_18–39 represents the entire BAGE4 CTA minus the signal peptide; this antigen is expressed in 22% of melanomas and 30% of infiltrating bladder carcinomas; to our knowledge, it has not been evaluated in vivo. Inclusion of the ...

HLA‐A2 = details: ref [34], [35], [36]; cited from earlier work
Excerpt: as §1

Molecule: CCCCCCCCCCCCCCCC(=O)OCC(CSCC(N)C(=O)O)OC(=O)CCCCCCCCCCCCCCC (stereo not shown)
- Potency relative to (R)‐analogue (TLR2): hundredfold decrease in potency compared to the (R)‐analogue

Molecule: BAGE4_18–39: small (22 amino acid, excluding the signal peptide) underexplored melanoma antigen (RLMKEESPVVSWWLEPEDGTAL; UniProt Q86Y28 18-39, looked up, fragment)
- Toxicity of antigen or components administered separately (BALB/c mice): does not show any toxicity
- IC50 (anti‐BAGE4 antibody): 11.4 nM
- T‐cell response, median (IFNγ‐secreting T‐cells; BAGE4 peptide + IFA, 10 nmol in 50 μL s.c., days 1, 8, 15, n = 3, day 21, restimulated with BAGE4_18–39, IFNγ ELISpot count): 511
- T‐cell response / ANOVA significance (in words) (IFNγ‐secreting T‐cells; BAGE4 peptide + IFA, 10 nmol s.c., days 1, 8, 15, n = 3, restimulated with BAGE4_18–32): slightly lower responses
- T‐cell response / ANOVA significance (in words) (IFNγ‐secreting T‐cells; BAGE4 peptide + IFA, 10 nmol s.c., days 1, 8, 15, n = 3, restimulated with BAGE4_18–39): good responses
- T‐cell response / ANOVA significance (in words) (IFNγ‐secreting T‐cells; BAGE4 peptide + IFA, 10 nmol s.c., days 1, 8, 15, n = 3, restimulated with BAGE4_22–31): almost no response; also recorded: no significance
- Immunogenicity (in words) (IFNγ‐secreting T‐cells; BALB/c mice, 10 nmol s.c., days 1, 8 and 15, n = 3, IFNγ ELISpot day 21): immunogenic in conventional BALB/c mice

Molecule: SLLMWITQC [NY‐ESO‐1_157‐165]
- Immunogenicity / T‐cell reactivation (in words) (CD8+ cells): spontaneously immunogenic; also recorded: reactivate T‐cell responses (CD8+ cells)
- Binding to HLA‐A2 (in words) (HLA‐A2): able to bind to HLA‐A2

From paper PMC12053792 (Journal of Peptide Science, 2025)
